Calls of active or inactive are those of the source.
Experiments:
Staphylococcus aureus [1] = assay: Inhibition of FabB/FabF in methicillin-resistant Staphylococcus aureus 3082 clinical isolate assessed as antibacterial activity after 16 hrs by agar dilution method
Staphylococcus aureus [2] = assay: Inhibition of FabB/FabF in methicillin-resistant Staphylococcus aureus 3140 clinical isolate assessed as antibacterial activity after 16 hrs by agar dilution method
Staphylococcus aureus [3] = assay: Inhibition of FabB/FabF in methicillin-resistant Staphylococcus aureus 3046 clinical isolate assessed as antibacterial activity after 16 hrs by agar dilution method
Staphylococcus aureus [4] = assay: Inhibition of FabB/FabF in methicillin-resistant Staphylococcus aureus 3111 clinical isolate assessed as antibacterial activity after 16 hrs by agar dilution method
Staphylococcus aureus [5] = assay: Inhibition of FabB/FabF in methicillin-resistant Staphylococcus aureus 2968 clinical isolate assessed as antibacterial activity after 16 hrs by agar dilution method
Staphylococcus aureus [6] = assay: Inhibition of FabB/FabF in methicillin-resistant Staphylococcus aureus 3182 clinical isolate assessed as antibacterial activity after 16 hrs by agar dilution method
Staphylococcus aureus [7] = assay: Inhibition of FabB/FabF in methicillin-resistant Staphylococcus aureus 3056 clinical isolate assessed as antibacterial activity after 16 hrs by agar dilution method
Staphylococcus aureus [8] = assay: Inhibition of FabB/FabF in methicillin-resistant Staphylococcus aureus 3097 clinical isolate assessed as antibacterial activity after 16 hrs by agar dilution method
Staphylococcus aureus [9] = assay: Inhibition of FabB/FabF in methicillin-resistant Staphylococcus aureus 3110 clinical isolate assessed as antibacterial activity after 16 hrs by agar dilution method
Staphylococcus aureus [10] = assay: Inhibition of FabB/FabF in methicillin-resistant Staphylococcus aureus 3105 clinical isolate assessed as antibacterial activity after 16 hrs by agar dilution method
Staphylococcus aureus [11] = assay: Inhibition of FabB/FabF in methicillin-resistant Staphylococcus aureus 2959 clinical isolate assessed as antibacterial activity after 16 hrs by agar dilution method
Staphylococcus aureus [12] = assay: Inhibition of FabB/FabF in methicillin-resistant Staphylococcus aureus 3094 clinical isolate assessed as antibacterial activity after 16 hrs by agar dilution method
Staphylococcus aureus [13] = assay: Antibacterial activity against methicillin-resistant Staphylococcus aureus infected in C57BL/6J mouse model of peritonitis assessed as mouse survival at 10 mg/kg, ip dosed at 1 hr and 5 hrs post infection and measured for 7 days relative to control; type: functional
Staphylococcus aureus [14] = assay: Antibacterial activity against methicillin-resistant Staphylococcus aureus infected in BALB/c mouse model of skin wound assessed as reduction in detachment of epidermis from dermis at 2 mg administered topically as ointment twice daily for 7 days and measured after 24 hrs by visual inspection method; type: functional, organism-based
Staphylococcus aureus [15] = assay: Antibacterial activity against methicillin-resistant Staphylococcus aureus infected in BALB/c mouse model of skin wound assessed as retainment of fat layers at 2 mg administered topically as ointment twice daily for 7 days and measured after 24 hrs by HE staining analysis; type: functional, organism-based
Staphylococcus aureus [16] = assay: Antibacterial activity against methicillin-resistant Staphylococcus aureus infected in C57BL/6J mouse model of peritonitis assessed as mouse survival at 30 to 50 mg/kg, po administered via gavage measured after 2 days; type: functional, organism-based
Staphylococcus aureus [17] = assay: Antibacterial activity against methicillin-resistant Staphylococcus aureus infected in C57BL/6J mouse model of peritonitis assessed as mouse survival at 30 mg/kg, ip dosed at 1 hr and 5 hrs post infection and measured for 7 days relative to control; type: functional
Staphylococcus aureus [18] = assay: Antibacterial activity against methicillin-resistant Staphylococcus aureus infected in BALB/c mouse model of skin wound assessed as reduction in appearance of secondary scald at 2 mg administered topically as ointment twice daily for 7 days and measured after 24 hrs by visual inspection method; type: functional, organism-based
Staphylococcus aureus [19] = assay: Antibacterial activity against methicillin-resistant Staphylococcus aureus infected in C57BL/6J mouse model of peritonitis assessed as mouse survival at 20 mg/kg, ip dosed at 1 hr and 5 hrs post infection and measured for 7 days relative to control; type: functional
Staphylococcus aureus [20] = assay: Antibacterial activity against methicillin-resistant Staphylococcus aureus infected in BALB/c mouse model of skin infection assessed as bacterial load in skin lesions at 2 mg administered topically as ointment twice daily for 7 days and measured at 24 hrs post last dose (7.9 +/- 0.9 x 10^8 CFU/g); type: functional
Staphylococcus aureus [21] = assay: Antibacterial activity against methicillin-resistant Staphylococcus aureus infected in BALB/c mouse model of skin wound assessed as retainment of dermis layers at 2 mg administered topically as ointment twice daily for 7 days and measured and after 24 hrs by HE staining analysis; type: functional, organism-based
Staphylococcus aureus [22] = assay: Inhibition of FabB/FabF in methicillin-resistant Staphylococcus aureus assessed as antibacterial activity at 2 ug/disk after 18 hrs by agar disk diffusion method

C[C@]12C[C@@]34C=CC(=O)[C@@](C)(CCC(=O)Nc5c(O)ccc(C(=O)O)c5O)[C@@H]3[C@H](C[C@@H]1C4)O2
inactive: Survival (Staphylococcus aureus [13])
1 µg/mL: MIC (Staphylococcus aureus [1]) | MIC (Staphylococcus aureus [2]) | MIC (Staphylococcus aureus [3]) | MIC (Staphylococcus aureus [4]) | MIC (Staphylococcus aureus [5]) | MIC (Staphylococcus aureus [6]) | MIC (Staphylococcus aureus [7]) | MIC (Staphylococcus aureus [8]) | MIC (Staphylococcus aureus [9]) | MIC (Staphylococcus aureus [10]) | MIC (Staphylococcus aureus [11]) | MIC (Staphylococcus aureus [12])

C[C@]12C[C@@]34C=C(SC5CCCCC5)C(=O)[C@@](C)(CCC(=O)Nc5c(O)ccc(C(=O)O)c5O)[C@@H]3[C@H](C[C@@H]1C4)O2
inactive: Survival (Staphylococcus aureus [16])
100%: survival at 20 mg/kg (Staphylococcus aureus [19])
> 60%: survival at 10 mg/kg (Staphylococcus aureus [13])
2.7 ×10⁶ CFU/g: Activity (Staphylococcus aureus [20])
active: inhibition (Staphylococcus aureus [1]) | Activity (Staphylococcus aureus [14]) | Activity (Staphylococcus aureus [15]) | inhibition (Staphylococcus aureus [2]) | inhibition (Staphylococcus aureus [3]) | inhibition (Staphylococcus aureus [4]) | inhibition (Staphylococcus aureus [5]) | inhibition (Staphylococcus aureus [6]) | inhibition (Staphylococcus aureus [7]) | Activity (Staphylococcus aureus [18]) | inhibition (Staphylococcus aureus [8]) | inhibition (Staphylococcus aureus [9]) | Activity (Staphylococcus aureus [21]) | inhibition (Staphylococcus aureus [10]) | inhibition (Staphylococcus aureus [22]) | inhibition (Staphylococcus aureus [11]) | inhibition (Staphylococcus aureus [12])
80%: survival at 30 mg/kg (Staphylococcus aureus [17])

— ChEMBL document CHEMBL4359841, “Late-Stage Functionalization of Platensimycin Leading to Multiple Analogues with Improved Antibacterial Activity in Vitro and in Vivo” (2019)
